Values after ≈ are worked out from the molar mass of the structure shown. Starred links: 1 amine or outer side, 2 acyl side, 3 side chain; linkers in the order of their positions; H or OH if unused. Positions of bridges follow the written chain, without caps; N, C: chain ends. Non-standard residues stand in square brackets, D forms with d. Residues, ends and D or L forms follow the SMILES beside them. *: point of attachment. hTyr(3S-OH,4S-OH,3'-OSO3H) = N[C@H](C(=O)O)[C@H](O)[C@@H](O)c1ccc(O)c(OS(=O)(=O)O)c1; Orn(4R-OH,5R-OH) = O=C([C@H](C[C@@H](O)[C@@H](O)N[*:3])N[*:1])[*:2]; Pro(3S-OH,4S-Me) = C[C@H]1CN[C@H](C(=O)O)[C@H]1O; X1 = CCCCCOc1ccc(-c2cc(-c3ccc(C(=O)*)cc3)no2)cc1; Gln(3R-OH) = NC(=O)C[C@@H](O)[C@H](N)C(=O)O; Hyp = O=C(O)[C@@H]1C[C@@H](O)CN1
What was measured:
C. glabrata = assay: Mutant prevention concentration (MPC) determination; assay type: cell-based, Candida glabrata; settings: wild-type isolates; 24 hr, ~1×10^7 CFU/mL
[1] = tested on: C. tropicalis vaginal isolates; assay: Susceptibility testing of VVC clinical isolates at pH 7 and 4 (CLSI M27-A3); assay type: cell-based; settings: Candida tropicalis
Candida krusei = assay: Broth microdilution of invasive fungal isolates (CLSI M27-A3/M38-A2); assay type: cell-based
[2] = tested on: Cryptococcus neoformans var. grubii; assay: as above; assay type: cell-based
[3] = tested on: 1,3-β-D-glucan synthase from C. glabrata; assay: Glucan synthase (GS) inhibition assay
[4] = tested on: C. albicans ATCC 90028 and DPL22; assay: MIC of strains used in mouse study (Table 3); settings: Candida albicans
Candida tropicalis = assay: Broth microdilution of invasive fungal isolates (CLSI M27-A3/M38-A2); assay type: cell-based
[5] = tested on: C. parapsilosis vaginal isolates; assay: Susceptibility testing of VVC clinical isolates at pH 7 and 4 (CLSI M27-A3); assay type: cell-based, Candida parapsilosis
Candida parapsilosis = assay: Broth microdilution of invasive fungal isolates (CLSI M27-A3/M38-A2); assay type: cell-based
C. dubliniensis = assay: Antifungal susceptibility testing (CLSI M27-S4), WT and echinocandin-resistant isolates; settings: 24 hr
Protocol: (§1) Antifungal susceptibility testing. Antifungal susceptibility testing was performed in triplicate for a collection of 95 Candida strains (20 C. albicans, 20 C. glabrata, 2 C. dubliniensis, 15 C. krusei, 19 C. parapsilosis, and 19 C. tropicalis) that included 30 isolates showing an echinocandin resistance (ER) phenotype (caspofungin-resistant) in accordance with the guidelines described in the Clinical and Laboratory Standards Institute (CLSI) document M27-S4. […] Stock solutions of the drugs were kept at −86° C.

C. albicans = assay: as above; settings: for MIC median (range): 24 hr
Protocol: as §1

Work on `CCCCCOc1ccc(-c2cc(-c3ccc(C(=O)N[C@H]4C[C@@H](O)[C@@H](O)NC(=O)[C@@H]5[C@@H](O)[C@@H](C)CN5C(=O)[C@H]([C@H](O)CC(N)=O)NC(=O)[C@H]([C@H](O)[C@@H](O)c5ccc(O)c(OS(=O)(=O)O)c5)NC(=O)[C@@H]5C[C@@H](O)CN5C(=O)[C@H]([C@@H](C)O)NC4=O)cc3)no2)cc1` [MCF, micafungin] (X1-[Orn(4R-OH,5R-OH)]T[Hyp][hTyr(3S-OH,4S-OH,3'-OSO3H)][Gln(3R-OH)][Pro(3S-OH,4S-Me)]; lactam 1-C) yielded an MPC (C. glabrata) of 16 µg/mL, an MIC90 ([1]; 24 h, pH 4) of 0.06 µg/mL (≈ 0.0472 µM) and an MIC90 ([1]; 24 h, pH 7) of 0.016 µg/mL (≈ 0.0126 µM). For the same compound, the MIC90 ([1]; 48 h, pH 4) was 0.06 µg/mL (≈ 0.0472 µM), the MIC90 ([1]; 48 h, pH 7) was 0.03 µg/mL (≈ 0.0236 µM) and the “Cumulative % of isolates inhibited at MIC 0.06 μg/mL” value (Candida krusei; 16 isolates) was “(50.0) %”. For the same compound, the “Cumulative % of isolates inhibited at MIC 0.12 μg/mL” value (Candida krusei; 16 isolates) was “(100.0) %”, the “Number of isolates inhibited at MIC 0.06 μg/mL” value (Candida krusei; 16 isolates) was 8 and the “Number of isolates inhibited at MIC 0.12 μg/mL” value (Candida krusei; 16 isolates) was 8. The MIC50 (Candida krusei; Pichia kudriavzevii) was 0.06 µg/mL (≈ 0.0472 µM), the MIC90 (Candida krusei; Pichia kudriavzevii) was 0.12 µg/mL (≈ 0.0945 µM) and the “Cumulative % of isolates inhibited at MIC >8 μg/mL” value ([2]; 19 isolates) was “(100.0) %”. The “Number of isolates inhibited at MIC >8 μg/mL” value ([2]; 19 isolates) was 19, the MIC50 ([2]; Cryptococcus neoformans) was 8 µg/mL (≈ 6.3 µM) and the MIC90 ([2]; Cryptococcus neoformans) was 8 µg/mL (≈ 6.3 µM). The IC50 ([3]; DPL50, WT) was 0.000447 µg/mL (≈ 0.000352 µM), the “GS activity after treatment with a high dose” value ([3]; F659del mutant GS, 10,000 ng/mL) was “did not exhibit significant reductions in activity” and the MIC ([4]; ATCC90028, ATCC 90028, Fks1p WT, Fks2p WT) was under 0.03 µg/mL. For the same compound, the MIC ([4]; ATCC90028, DPL22, Fks1p S645P/S) was 0.5 µg/mL, the “Cumulative % of isolates inhibited at MIC 0.015 μg/mL” value (Candida tropicalis; 51 isolates) was “(31.4) %” and the “Cumulative % of isolates inhibited at MIC 0.03 μg/mL” value (Candida tropicalis; 51 isolates) was “(84.3) %”. The “Cumulative % of isolates inhibited at MIC 0.06 μg/mL” value (Candida tropicalis; 51 isolates) was “(100.0) %”, the “Cumulative % of isolates inhibited at MIC ≤0.008 μg/mL” value (Candida tropicalis; 51 isolates) was “(2.0) %” and the “Number of isolates inhibited at MIC 0.015 μg/mL” value (Candida tropicalis; 51 isolates) was 15. For the same compound, the “Number of isolates inhibited at MIC 0.03 μg/mL” value (Candida tropicalis; 51 isolates) was 27, the “Number of isolates inhibited at MIC 0.06 μg/mL” value (Candida tropicalis; 51 isolates) was 8 and the “Number of isolates inhibited at MIC ≤0.008 μg/mL” value (Candida tropicalis; 51 isolates) was 1. For the same compound, the MIC50 (Candida tropicalis; Candida tropicalis) was 0.03 µg/mL (≈ 0.0236 µM), the MIC90 (Candida tropicalis; Candida tropicalis) was 0.06 µg/mL (≈ 0.0472 µM) and the MIC90 ([5]; 24 h, pH 4) was 0.5 µg/mL (≈ 0.394 µM). It also gave an MIC90 ([5]; 24 h, pH 7) of 1 µg/mL (≈ 0.787 µM), an MIC90 ([5]; 48 h, pH 4) of 1 µg/mL (≈ 0.787 µM) and an MIC90 ([5]; 48 h, pH 7) of 2 µg/mL (≈ 1.57 µM). The “Cumulative % of isolates inhibited at MIC 0.5 μg/mL” value (Candida parapsilosis; 92 isolates) was “(10.9) %”, the “Cumulative % of isolates inhibited at MIC 1 μg/mL” value (Candida parapsilosis; 92 isolates) was “(72.8) %” and the “Cumulative % of isolates inhibited at MIC 2 μg/mL” value (Candida parapsilosis; 92 isolates) was “(100.0) %”. For the same compound, the “Number of isolates inhibited at MIC 0.5 μg/mL” value (Candida parapsilosis; 92 isolates) was 10, the “Number of isolates inhibited at MIC 1 μg/mL” value (Candida parapsilosis; 92 isolates) was 57 and the “Number of isolates inhibited at MIC 2 μg/mL” value (Candida parapsilosis; 92 isolates) was 25. For the same compound, the MIC50 (Candida parapsilosis; Lodderomyces parapsilosis) was 1 µg/mL (≈ 0.787 µM), the MIC90 (Candida parapsilosis; Lodderomyces parapsilosis) was 2 µg/mL (≈ 1.57 µM) and the “MIC median (range)” value (C. dubliniensis; ER (1 isolate)) was 0.03 µg/mL (≈ 0.0236 µM). For the same compound, the “MIC median (range)” value (C. dubliniensis; WT (1 isolate)) was 0.03 µg/mL (≈ 0.0236 µM), the “% of ER isolates with an MIC of ≤0.5 mg/L” value (C. albicans; C. albicans ER isolates) was 40% and the “MIC median (range)” value (C. albicans; ER (10 isolates)) was 0.50 (0.03-4) mg/L. The “MIC median (range)” value (C. albicans; WT (10 isolates)) was <0.03 (<0.03)^ mg/L.
